Assay type in all cases: cell-based
One assay has as its system HCT 116. Briefly: SRB cell proliferation assay, HCT 116. The note with it: Homo sapiens, 72 hours, SRB assay, read-out: CELLULAR IC50 HCT 116. The procedure:
(§1) We observed the surprising finding that compounds of the invention were useful in inhibiting proliferation of tumor cell lines (see Table 3).
(§2) Cells were exposed to the test compounds at various concentrations appropriate to determine an IC50 for 72 hours. Cell proliferation was measured using the SRB assay according to Shekan et al (J Natl Cancer Inst (1990) 82, 1107-112) in order to estimate the IC50 values shown in Table 3. Briefly, cells were plated in 96 well dishes 24 hours prior to compound addition at the densities specified in Table 5.1. The assay was terminated with the addition of cold TCA to a final concentration of 10% after growth medium has been removed and the plates were incubated over night at 4°C. The plates were then washed 5 times with water and 100µl of a Sulforhodamine B solution (4%) was added to each well. The plates were then incubated for 10 minutes at room temperature before removal of unbound dye by washing with 1% acetic acid. The bound dye was solubilised with 10 mM Trizma base and the absorbance read at OD520.
(§3) Inhibitory activity of the compounds (IC) was calculated as % inhibition of cell proliferation compared to cells treated with the solvent (DMSO).
(§4) Table 8.1: 18-Cell Line Panel
On the technique in general: Sulforhodamine B stains cellular protein and so reports cell mass.

The subject of a further assay is HT-29. Briefly: SRB cell proliferation assay, HT-29. The note with it: Homo sapiens, 72 hours, SRB assay, read-out: CELLULAR IC50 HT-29. As to the method:
as §1, §2, §3, §4

The next assay deals with IMR-90. Briefly: SRB cell proliferation assay, IMR-90. The note with it: Homo sapiens, 72 hours, SRB assay, slow cycling cell line, read-out: CELLULAR IC50 IMR-90. The procedure:
as §1, §2, §3, §4

A further assay has as its target Plk1 (Homo sapiens, UniProt P53350). Briefly: Cellular Plk1 kinase activity: nucleophosmin (B23) Ser4 phosphorylation in HCT116 cells (MSD electrochemiluminescence). Further details: host or cells: HCT116. The following applies: 100 ng/ml nocodazole, 4 hours after compound addition, read-out: Biochemical IC50 Nucleophosmin assay. The procedure:
We observed the surprising finding that compounds of the invention were able to penetrate cell membranes and retained their activity as Plk1 inhibitors against native Plk1 expressed within living cancer cells.
Cellular Plk1 kinase activity was measured by quantification of nucleophosmin (B23) Ser4 phosphorylation in a cancer cell line. Nucleophosmin (B23) Ser4 is phosphorylated by Plk1, and this phosphorylation can be specifically detected by cross-reactivity of a phospho-Mek1/2 antibody that is able to recognizes a mitotic-specific phosphorylated form of nucleophosmin (B23) in a nocodazole dependent way (Zhang, H., Shi, X., Paddon, H., Hampong, M., Dai, W., and Pelech, S. (2004) B23/Nuleophosmin Serin 4 Phosphorylation Mediates Mitotic Functions of Polo-like Kinase 1. J. Biol. Chem., 279(34), 35726-35734).
Briefly, HCT116 cells (ATCC, Order No. CCL-247) were plated in 96 well dishes 24 hours prior to nocodazole treatment at 25 000 cells per well. Cells were then treated with 100 ng/ml nocodazole (Sigma-Aldrich, # M1404). 20 hours after nocodazole treatment, cells were exposed to the test compounds at various concentrations appropriate to determine an IC50. 4 hours after compound addition, medium was carefully removed and 120 µl of Complete Tris Lysis Buffer (R60TX; MSD, Gaithersburg MD) was added to each well. Samples were then stored at -20°C.
The level of nucleophosmin (B23) Ser4 phosphorylation in these cell lysis samples was estimated by electrochemiluminescence detection using the Meso Scale Discovery ("MSD") Technology Platform (MSD, Gaithersburg MD). The protocol used was as recommended by the manufacturer with the use of a phospho-Mek1/2 antibody (Cell Signalling, #9121) as primary antibody, and is as follows.
The cell lysates were thawed at room temperature and 40 µl were incubated on 96-well MULTI-ARRAY High Bind plates (L11XB; MSD) for 1.5 - 2 hours at room temperature. The supernatants were then removed and 150 µl of a 5% (w/v) solution of Blocker A (R93AA; MSD) in Tris Wash Buffer (R61TX; MSD) were added to each well. The plates were then incubated for 1 hour at room temperature before removal of the Blocker A solution and washed 4 times with 200 µl Tris Wash Buffer. 25 µl primary antibody (anti-phospho-MEK1/2, Cell Signalling, #9121, rabbit polyclonal), diluted 1:250 in a 1% (w/v) solution of Blocker A in Tris Wash Buffer, were added to each well. The plates were then incubated for 1 hour at room temperature before removal of the antibody solution and washed 4 times with 200 µl Tris Wash Buffer. Then, 25 µl of labelled secondary antibody (SULFO-TAG Goat Anti-Rabbit IgGAntibody (R32AB; MSD), diluted 1:500 in a 1% (w/v) solution of Blocker A in Tris Wash Buffer) were added to each well. The plates were then incubated for 1 hour at room temperature before removal of the antibody solution and washed 4 times with 200 µl Tris Wash Buffer. Then, […] of 1x Read Buffer T (R92TC; MSD) were carefully added to each well and the plates were quantitatively detected for each well with a SECTOR™ Imager 6000 (MSD).
Inhibitory activity of the compounds (IC) was calculated as % inhibition of nucleophosmin (B23) Ser4 phosphorylation compared to cells not treated with nocodazole.

In EP2112152A1, “Dihydropteridinones as Plk Inhibitors” (GPC Biotech AG, priority 2008, dated 2009) one finds IC50 data, which are given here for twelve compounds.

SMILES strings stand for the structures. Like-named read-outs stand apart in the source and are kept apart here. Where only a bound is given, the exact number is not on record here.

One may read the IC50 as the concentration at which inhibition is half-maximal.

Chain of Plk1 (P53350 whole entry, species assumed): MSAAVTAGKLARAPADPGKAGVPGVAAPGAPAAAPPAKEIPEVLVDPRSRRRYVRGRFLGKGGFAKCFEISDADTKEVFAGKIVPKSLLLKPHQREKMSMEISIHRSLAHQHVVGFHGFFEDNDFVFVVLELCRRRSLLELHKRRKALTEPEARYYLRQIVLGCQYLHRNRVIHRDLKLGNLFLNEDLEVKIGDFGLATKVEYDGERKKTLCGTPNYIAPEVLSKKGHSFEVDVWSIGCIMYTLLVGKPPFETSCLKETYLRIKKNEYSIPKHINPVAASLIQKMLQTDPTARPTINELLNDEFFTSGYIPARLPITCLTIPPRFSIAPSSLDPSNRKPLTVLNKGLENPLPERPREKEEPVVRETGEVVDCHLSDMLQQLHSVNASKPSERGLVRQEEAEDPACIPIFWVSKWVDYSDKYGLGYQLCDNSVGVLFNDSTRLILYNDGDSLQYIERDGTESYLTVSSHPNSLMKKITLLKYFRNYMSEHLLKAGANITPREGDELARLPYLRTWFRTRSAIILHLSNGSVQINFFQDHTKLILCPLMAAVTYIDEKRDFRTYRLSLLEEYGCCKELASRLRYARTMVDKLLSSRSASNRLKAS

For the compound `CCCN(C)N1c2nc(Nc3ccc(C(=O)NC4CCN(C)CC4)cc3OC)ncc2N(C)C(=O)C1CC` (stereo not drawn) [Compound 20, 4-[7-Ethyl-5-methyl-8-(methyl-propyl-amino)-6-oxo-5,6,7,8-tetrahydro-pteridin-2-ylamino]-3-methoxy-N-(1-methyl-piperidin-4-yl)-benzamide], the IC50 in the assay on HCT 116 (HCT-116, 72 h) is under 1000 nM; in the assay on HT-29 (HT-29, 72 h) it was under 1000 nM; in the assay with IMR-90 it was over 1000 nM; at Plk1, under 100 nM.

For `CCC1C(=O)N(C)c2cnc(Nc3ccc(C(=O)N[C@H]4CC[C@H](N5CCN(CC6CC6)CC5)CC4)cc3OC)nc2N1N(C)CC(C)C` (relative stereo) [Compound 24, N-[trans-4-(4-Cyclopropylmethyl-piperazin-1-yl)-cyclohexyl]-4-[7-ethyl-8-(isobutyl-methyl-amino)-5-methyl-6-oxo-5,6,7,8-tetrahydro-pteridin-2-ylamino]-3-methoxy-benzamide], the IC50 is under 1000 nM in the assay with HCT 116 (HCT-116, 72 h); under 1000 nM in the assay on HT-29 (HT-29, 72 h); over 1000 nM with IMR-90; under 100 nM at Plk1.

`CCC1C(=O)N(C)c2cnc(Nc3ccc(C(=O)NC4CCN(C)CC4)cc3OC)nc2N1N(C)CC1CC1` (stereo not drawn) [Compound 17, 4-[8-(Cyclopropylmethyl-methyl-amino)-7-ethyl-5-methyl-6-oxo-5,6,7,8-tetrahydro-pteridin-2-ylamino]-3-methoxy-N-(1-methyl-piperidin-4-yl)-benzamide]: the IC50 in the assay with HCT 116 (HCT-116, 72 h) is under 1000 nM; with HT-29 (HT-29, 72 h), under 1000 nM; with IMR-90 it was over 1000 nM; at Plk1, under 500 nM.

On to `CCC1C(=O)N(C)c2cnc(Nc3ccc(C(=O)NC4CCN(C)CC4)cc3OC)nc2N1N(C)C` (single isomer, unassigned) [Compound 36, 4-(8-dimethylamino-7-ethyl-5-methyl-6-oxo-5,6,7,8-tetrahydro-pteridin-2-ylamino)-3-methoxy-N-(1-methyl-piperidin-4-yl)-benzamide], for which the IC50 was over 1000 nM in the assay on HCT 116 (HCT-116, 72 h); over 1000 nM in the assay with HT-29 (HT-29, 72 h); over 1000 nM with IMR-90; over 1000 nM on Plk1.

For `CCC1C(=O)N(C)c2cnc(Nc3ccc(C(=O)NCC4CCN(Cc5ccccc5)CC4)cc3OC)nc2N1N(C)C` (stereo not drawn) [Compound 12, N-(1-Benzyl-piperidin-4-ylmethyl)-4-(8-dimethylamino-7-ethyl-5-methyl-6-oxo-5,6,7,8-tetrahydro-pteridin-2-ylamino)-3-methoxy-benzamide], the IC50 with HCT 116 (HCT-116, 72 h) was under 1000 nM; in the assay with HT-29 (HT-29, 72 h), under 1000 nM; in the assay on IMR-90, over 1000 nM; on Plk1, under 100 nM.

As for `CCC1C(=O)N(C)c2cnc(Nc3ccc(C(=O)NCC4CCN(CC)CC4)cc3OC)nc2N1N(C)Cc1ccccc1` (stereo not drawn) [Compound 21, 4-[8-(Benzyl-methyl-amino)-7-ethyl-5-methyl-6-oxo-5,6,7,8-tetrahydro-pteridin-2-ylamino]-N-(1-ethyl-piperidin-4-ylmethyl)-3-methoxy-benzamide], the IC50 in the assay on HCT 116 (HCT-116, 72 h) is under 1000 nM; in the assay on HT-29 (HT-29, 72 h), under 1000 nM; in the assay with IMR-90 it was over 1000 nM; at Plk1 it was under 500 nM.

Consider `CCC1C(=O)N(C)c2cnc(Nc3ccc(C(=O)NCc4ccc(N5CCN(C)CC5)cc4)cc3OC)nc2N1N(C)C` (stereo not drawn) [Compound 11, 4-(8-Dimethylamino-7-ethyl-5-methyl-6-oxo-5,6,7,8-tetrahydro-pteridin-2-ylamino)-3-methoxy-N-[4-(4-methyl-piperazin-1-yl)-benzyl]-benzamide], for which the IC50 is under 1000 nM in the assay on HCT 116 (HCT-116), under 1000 nM in the assay with HT-29 (HT-29), over 1000 nM in the assay on IMR-90 and under 100 nM on Plk1.

As to `CCC1C(=O)N(C)c2cnc(Nc3ccc(C(=O)N[C@H]4CC[C@H](N5CCN(CC6CC6)CC5)CC4)cc3OC)nc2N1NC` (relative stereo) [Compound 31, N-[trans-4-(4-Cyclopropylmethyl-piperazin-1-yl)-cyclohexyl]-4-(7-ethyl-5-methyl-8-methylamino-6-oxo-5,6,7,8-tetrahydro-pteridin-2-ylamino)-3-methoxy-benzamide], the IC50 is under 1000 nM with HCT 116 (HCT-116, 72 h); under 1000 nM in the assay on HT-29 (HT-29, 72 h); over 1000 nM in the assay with IMR-90; under 100 nM on Plk1.

For the compound `CCC1C(=O)N(C)c2cnc(Nc3ccc(C(=O)NC4CCN(C)CC4)cc3OC)nc2N1N(C)CC1CCC1` (stereo not drawn) [Compound 33, 4-[8-(Cyclobutylmethyl-methyl-amino)-7-ethyl-5-methyl-6-oxo-5,6,7,8-tetrahydro-pteridin-2-ylamino]-3-methoxy-N-(1-methyl-piperidin-4-yl)-benzamide], the IC50 with HCT 116 (HCT-116, 72 h) was under 1000 nM; in the assay with HT-29 (HT-29, 72 h) it was under 1000 nM; with IMR-90, over 1000 nM; at Plk1 it was under 100 nM.

With `CCC1C(=O)N(C)c2cnc(Nc3ccc(C(=O)NCC4CCN(CC)CC4)cc3OC)nc2N1NC` (stereo not drawn) [Compound 32, 4-(7-Ethyl-5-methyl-8-methylamino-6-oxo-5,6,7,8-tetrahydro-pteridin-2-ylamino)-N-(1-ethyl-piperidin-4-ylmethyl)-3-methoxy-benzamide], the IC50 with HCT 116 (HCT-116, 72 h) is under 1000 nM; in the assay on HT-29 (HT-29, 72 h) it was under 1000 nM; with IMR-90, over 1000 nM; at Plk1 it was under 500 nM.

As to `CCC1C(=O)N(C)c2cnc(Nc3ccc(C(=O)N[C@H]4CC[C@H](N5CCN(CC6CC6)CC5)CC4)cc3OC)nc2N1N(C)CC` (relative stereo) [Compound 26, N-[trans-4-(4-Cyclopropylmethyl-piperazin-1-yl)-cyclohexyl]-4-[7-ethyl-8-(ethyl-methyl-amino)-5-methyl-6-oxo-5,6,7,8-tetrahydro-pteridin-2-ylamino]-3-methoxy-benzamide], the IC50 is under 1000 nM in the assay on HCT 116 (HCT-116, 72 h); under 1000 nM in the assay with HT-29 (HT-29, 72 h); over 1000 nM in the assay with IMR-90; under 100 nM on Plk1.

`CCC1C(=O)N(C)c2cnc(Nc3ccc(C(=O)N[C@H]4CC[C@H](N5CCN(CC6CC6)CC5)CC4)cc3OC)nc2N1N(C)Cc1ccccc1` (relative stereo) [Compound 16, 4-[8-(Benzyl-methyl-amino)-7-ethyl-5-methyl-6-oxo-5,6,7,8-tetrahydro-pteridin-2-ylamino]-N-[trans-4-(4-cyclopropylmethyl-piperazin-1-yl)-cyclohexyl]-3-methoxy-benzamide]: the IC50 in the assay on HCT 116 (HCT-116, 72 h) is under 1000 nM; in the assay with HT-29 (HT-29, 72 h), under 1000 nM; with IMR-90, over 1000 nM; on Plk1 it was under 100 nM.
